Source: ChEMBL document CHEMBL3352426, “A natural phenylpropionate derivative from Mirabilis himalaica inhibits cell proliferation and induces apoptosis in HepG2 cells” (Bioorg Med Chem Lett, 2014)
≈ marks a conversion by molar mass, not a printed value. Calls of active or inactive are those of the source. No cut-off for these calls is given here.

Tests used:
[1] = system: HepG2; assay: Cytotoxicity against human HepG2 cells assessed as inhibition of cell proliferation after 48 hrs by CCK8 assay; format: functional, cell-based
[2] = system: HepG2; assay: Cytotoxicity against human HepG2 cells assessed as inhibition of cell proliferation at 2.5 to 40 ug/ml by CCK8 assay; format: functional, cell-based; conditions: TDE = time-dependent effect
[3] = system: HepG2; assay: Cytotoxicity against human HepG2 cells assessed as inhibition of cell proliferation at 20 ug/ml by MTT assay; format: functional
[4] = system: HepG2; assay: Induction of apoptosis in human HepG2 cells assessed as assessed as accumulation at G0/G1 phase after 48 hrs by propidium iodide staining-based flow cytometric analysis (reference value: 70.8%); format: functional
[5] = system: HepG2; assay: Induction of apoptosis in human HepG2 cells assessed as assessed as accumulation at S phase after 48 hrs by propidium iodide staining-based flow cytometric analysis (reference value: 18.9%); format: functional
[6] = system: HepG2; assay: Induction of apoptosis in human HepG2 cells assessed as assessed as accumulation at G2/M phase after 48 hrs by propidium iodide staining-based flow cytometric analysis (reference value: 10.4%); format: functional
[7] = system: HepG2; assay: Effect on CDK2 expression in human HepG2 cells after 48 hrs by Western blot analysis; format: functional, cell-based
[8] = system: HepG2; assay: Effect on CDK4 expression in human HepG2 cells after 48 hrs by Western blot analysis; format: functional, cell-based
[9] = system: HepG2; assay: Effect on CDK6 expression in human HepG2 cells after 48 hrs by Western blot analysis; format: functional, cell-based
[10] = system: HepG2; assay: Effect on Cyclin D1 expression in human HepG2 cells after 48 hrs by Western blot analysis; format: functional, cell-based
[11] = system: HepG2; assay: Effect on Cyclin A expression in human HepG2 cells after 48 hrs by Western blot analysis; format: functional, cell-based
[12] = system: HepG2; assay: Cytotoxicity against human HepG2 cells assessed as decrease in positive staining after 1 hr by BrdU immunofluorescence assay relative to untreated control; format: functional
[13] = system: HepG2; assay: Induction of apoptosis in human HepG2 cells assessed as assessed as increase in apoptotic cells after 48 hrs by annexin V/propidium iodide staining-based flow cytometric analysis; format: functional
[14] = Cytotoxicity against human L02 cells assessed as assessed as apoptotic cells after 48 hrs by annexin V/propidium iodide staining-based flow cytometric analysis; format: cell-based; conditions: l02, 48 h
[15] = system: HepG2; assay: Induction of alteration in mitochondrial membrane potential in human HepG2 cells assessed as decrease Rh-123 fluorescence at 5 ug/ml after 48 hrs by flow cytometric analysis; format: functional; conditions: HepG2, 48 h
[16] = system: HepG2; assay: Induction of alteration in mitochondrial membrane potential in human HepG2 cells assessed as decrease Rh-123 fluorescence at 10 ug/ml after 48 hrs by flow cytometric analysis; format: functional; conditions: HepG2, 48 h
[17] = system: HepG2; assay: Induction of alteration in mitochondrial membrane potential in human HepG2 cells assessed as decrease Rh-123 fluorescence at 20 ug/ml after 48 hrs by flow cytometric analysis; format: functional; conditions: HepG2, 48 h
[18] = system: HepG2; assay: Induction of alteration in mitochondrial membrane potential in human HepG2 cells assessed as decrease Rh-123 fluorescence after 48 hrs by flow cytometric analysis; format: functional, cell-based
[19] = system: HepG2; assay: Induction of apoptosis in human HepG2 cells assessed as increase in Bax level after 48 hrs by Western blot analysis; format: functional, cell-based
[20] = system: HepG2; assay: Induction of apoptosis in human HepG2 cells assessed as decrease in Bcl2 level after 48 hrs by Western blot analysis; format: functional, cell-based
[21] = system: HepG2; assay: Induction of apoptosis in human HepG2 cells assessed as caspase 3 activation after 48 hrs by Western blot analysis; format: functional, cell-based
[22] = system: HepG2; assay: Induction of apoptosis in human HepG2 cells transfected with pBabe-puro assessed as apoptotic cell accumulation after 48 hrs by annexin V/propidium iodide staining-based flow cytometric analysis; format: functional
[23] = system: HepG2; assay: Induction of apoptosis in human HepG2 cells transfected with pBabe-puro with Bcl2 assessed as apoptotic cell accumulation after 48 hrs by annexin V/propidium iodide staining-based flow cytometric analysis; format: functional
[24] = system: HepG2; assay: Increase in p53 expression in human HepG2 cells after 48 hrs by Western blot analysis; format: functional, cell-based
[25] = system: HepG2; assay: Increase in p21 expression in human HepG2 cells after 48 hrs by Western blot analysis; format: functional, cell-based
[26] = system: HepG2; assay: Induction of apoptosis in human HepG2 cells transfected with p53 shRNA assessed as apoptotic cell accumulation after 48 hrs by annexin V/propidium iodide staining-based flow cytometric analysis; format: functional
[27] = system: HepG2; assay: Antitumor activity against human HepG2 cells injected in ip dosed mouse assessed as reduction in tumor size treated for 13 days; format: functional
[28] = system: Mus musculus; assay: Toxicity in human HepG2 cells injected in ip dosed mouse assessed as change in body weight; format: organism-based; conditions: in vivo

In the case of `COc1cc(OC(=O)/C=C/c2ccc(O)cc2OC)ccc1O`, the inhibition [1] is reported as “Dose-dependent effect”, the IC50 ([1]; HepG2, 48 h) is reported as 15.1 µg/mL (≈ 47.8 µM) and the inhibition [2] is reported as “tde”. The inhibition at 20 µg/mL [3] was 37%, the Activity [4] was 52.6% and the Activity [5] was 36%. The Activity [6] was 11.4%, the Activity [7] was “inactive” and the Activity [8] was “inactive”. For the same compound, the Activity [9] was “inactive”, the Activity [10] was “inactive” and the Activity [11] was “inactive”. For the same compound, the “inhibition (INH)” value [12] was 40%, the Activity [13] was 89.9% and the Activity [14] was “Non-toxic”. It also gave an inhibition at 5 µg/mL [15] of 37.1%, an inhibition at 10 µg/mL [16] of 69.5% and an inhibition at 20 µg/mL [17] of 84.9%. The inhibition [18] was “Dose-dependent effect”, the Activity [19] was “Active” and the inhibition [20] was “Active”. For the same compound, the Activity [21] was “Active”, the Activity [22] was 75.4% and the Activity [23] was 26.9%. The Activity [24] was “Active”, the Activity [25] was “Active” and the Activity [26] was 68.8%. The “inhibition (INH)” value [27] was 50% and the Activity [28] was “Non-toxic”.
